Test results taken from patent US8097590B2, “α-MSH-antagonist dipeptide conjugates” (Centre National de la Recherche Scientifique (CNRS), priority 2004, dated 2012).
Read-outs that look alike come from different tables or passages of the source. Non-standard residues stand in square brackets, D forms with d. Residues, ends and D or L forms follow the SMILES beside them. No end group written: not given here. *: point of attachment. Palmitoyl = CCCCCCCCCCCCCCCC(=O)*

Tests used:
human MC1 receptor = molecular target: T1, human MC1 receptor (Homo sapiens, UniProt Q01726); experiment: Inhibition of AMPc production induced by α-MSH on M4Be cells; assay type: cell-based; details: M4Be human cell line, 5×10^−8 M α-MSH
T1 construct: endogenous in cells; host or cells: M4Be human melanoma (melanocyte) cell line
Description: Five Palm-dipeptides according to this invention were introduced at different concentrations and each measurement was made in triplicate. Two or three series of experiments were made.
The M4Be human cell line (Jacubovich et al. Cancer Immunol. Immunother. 1979, 7, 59-64), a melanocytes cell line capable of producing melanines, was used in this study to determine the values of CI50.
The cells were maintained in the Dulbecco modified Eagle medium with 10% of foetal calf serum (FCS), 1 mM of glutamine, 100 U/ml of penicillin and 10^−4 g/ml of streptomycine.
All cell lines were maintained at 37° C. in an atmosphere with 5% of CO2 and cell culture media were renewed every two days. The cells were applied in contact with a plate with 96 wells (Nunc, Roskilde) 24 hours before contact of dipeptides according to the invention.
Cells applied in contact the day before with 8×10^4 cells per well were put in the presence of one of the five dipeptide conjugates according to the invention at various concentrations for 10 minutes at 37° C. with 5×10^−8 M of α-MSH. After this time, the lysis of the cells was made and the AMPc content was measured using a connection test box by competition (RPN225, Amersham Pharmacia Biotech). Each independent experiment was carried out at least twice in triplicate.
The peptidic activity was determined with reference to the AMPc content synthesized by untreated cells and the production of AMPc induced by α-MSH alone. The curves were adjusted and the values of CI50 were determined with non-linear regression in the GraphPad Prism (GraphPad software, San Diego, Calif., United States).

receptor MC1 [1] = details: Jayawickreme et al., J. Biol. Chem. 1994; cited from earlier work
receptor MC1 [2] = details: Proc. Natl. Acad. Sci. (1995), 92, result in words; cited from earlier work
[3] = 10 minutes at 37° C., experiment 1, read-out: CI50 (μM) exp1
[4] = 10 minutes at 37° C., experiment 2, read-out: CI50 (μM) exp2
[5] = average of the experiments, read-out: CI50 (μM) aver.
[6] = 10 minutes at 37° C., experiment 3, read-out: CI50 (μM) exp3

T1 sequence (Q01726 whole entry): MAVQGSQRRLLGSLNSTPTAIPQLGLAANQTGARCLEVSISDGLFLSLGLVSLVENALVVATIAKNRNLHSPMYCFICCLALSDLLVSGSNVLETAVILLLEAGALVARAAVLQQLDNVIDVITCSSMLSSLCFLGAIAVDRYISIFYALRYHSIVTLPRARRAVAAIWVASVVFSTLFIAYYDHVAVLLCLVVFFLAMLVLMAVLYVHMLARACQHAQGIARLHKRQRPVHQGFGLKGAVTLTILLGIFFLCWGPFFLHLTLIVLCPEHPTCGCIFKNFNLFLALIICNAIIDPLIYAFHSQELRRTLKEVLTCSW

| Molecule | IC50 (human MC1 receptor; [3]) | IC50 (human MC1 receptor; [4]) | IC50 (human MC1 receptor; [5]) | IC50 (human MC1 receptor; [6]) | Ki (receptor MC1 [1]) | antagonist activity (receptor MC1 [2]) |
| --- | --- | --- | --- | --- | --- | --- |
| CCCCCCCCCCCCCCCC(=O)N[C@@H](CCCNC(=N)N)C(=O)N1CCC[C@H]1C(N)=O [Compound 49, Palm-Arg-Pro-NH2] (Palmitoyl-Arg-Pro-NH2) | 20 µM | 26 µM | 23 µM | – | – | – |
| CCCCCCCCCCCCCCCC(=O)N[C@@H](CO)C(=O)N1CCC[C@H]1C(N)=O [Compound 125, Palm-Ser-Pro-NH2] (Palmitoyl-Ser-Pro-NH2) | 45 µM | 5.5 µM | 17 µM | 1 µM | – | – |
| H-MP[dF]R[dW]FKPV-NH2 [153 N-6] | – | – | – | – | 11 nM | – |
| CCCCCCCCCCCCCCCC(=O)N[C@@H](CCCNC(=N)N)C(=O)N[C@@H](CCCCN)C(N)=O [Compound 50, Palm-Arg-Lys-NH2] (Palmitoyl-Arg-Lys-NH2) | 48 µM | 9.6 µM | 29 µM | – | – | – |
| [dW]-Arg-Leu-NH2 | – | – | – | – | – | has an antagonist activity |
| CCCCCCCCCCCCCCCC(=O)N[C@@H](CCCNC(=N)N)C(=O)N[C@@H](CCCNC(=N)N)C(N)=O [Compound 41, Palm-Arg-Arg-NH2] (Palmitoyl-Arg-Arg-NH2) | 36 µM | 17 µM | 26 µM | – | – | – |
| CCCCCCCCCCCCCCCC(=O)N[C@@H](CCCNC(=N)N)C(=O)N[C@@H](Cc1c[nH]cn1)C(N)=O [Compound 39, Palm-Arg-His-NH2] (Palmitoyl-Arg-His-NH2) | 29 µM | 4.6 µM | 13 µM | 4.4 µM | – | – |
